Results published in patent US10064913B2, “Immunotherapy against several tumors including gastrointestinal and gastric cancer” (IMMATICS BIOTECHNOLOGIES GMBH, priority 2010, dated 2018).

Columns and labels:
[1] = tested on: CD8+ T cells; test: In vitro immunogenicity of HLA-A*2402 restricted TUMAPs (aAPC priming of CD8+ T cells, multimer staining); format: cell-based, human; settings: HLA-A*2402 peptides, CD8+ T cells of healthy HLA-A*24 donors, three stimulation cycles with pMHC/anti-CD28 beads; for Wells positive/evaluable [%]: at least 48 wells evaluable; for Donors positive/evaluable [%]: at least four donors evaluable
Excerpt: (§1) In order to perform in vitro stimulations by artificial antigen presenting cells (aAPC) loaded with peptide-MHC complex (pMHC) and anti-CD28 antibody, we first isolated CD8 T cells from fresh HLA-A*24 leukapheresis products or from HLA-A*2 buffy coats of healthy donors obtained from the Blood Bank Tuebingen.
(§2) CD8 T cells were either directly enriched or PBMCs (peripheral blood mononuclear cells) were isolated first by using standard gradient separation medium (PAA, Colbe, Germany). Isolated CD8 lymphocytes or PBMCs were incubated until use in T-cell medium (TCM) consisting of RPMI-Glutamax (Invitrogen, Karlsruhe, Germany) supplemented with 10% heat inactivated human AB serum (PAN-Biotech, Aidenbach, Germany), 100 U/ml Penicillin/100 μg/ml Streptomycin (Cambrex, Cologne, Germany), 1 mM sodium pyruvate (CC Pro, Oberdorla, Germany), 20 μg/ml Gentamycin (Cambrex). […] Isolation of CD8+ lymphocytes was performed by positive selection using CD8 MicroBeads (Miltenyi Biotec, Bergisch-Gladbach, Germany).
(§3) 800.000 beads/200 μl were coated in 96-well plates in the presence of 600 ng biotin-anti-CD28 plus 200 ng relevant biotin-pMHC (high density beads). […] Half of the medium was then exchanged by fresh TCM supplemented with 80 U/ml IL-2 and incubation was continued for 3-4 days at 37° C. This stimulation cycle was performed for a total of three times.
(§4) In vitro priming of specific multimer+CD8+ lymphocytes was detected by appropriate gating and by comparing to negative control stimulations.

[2] = tested on: CD8+ T cells; test: In vitro immunogenicity of HLA-A*0201 restricted TUMAPs (aAPC priming of CD8+ T cells, multimer staining); format: cell-based, human; settings: HLA-A*0201 peptides, CD8+ T cells from HLA-A*2 buffy coats of healthy donors, three stimulation cycles
Excerpt: as §1, §2, §3, §4

[3] = peptide included in vaccines IMA901 and IMA910, described in other applications by immatics; cited from earlier work

Sequence | Wells positive/evaluable [%] [1] [%] | Donors positive/evaluable [%] [1] [%] | Donors positive/evaluable [%] [2] [%] | Wells positive/evaluable [%] [2] [%] | in vivo reactions [3]
AYAIIKEEL (listed as Homo sapiens) [ATAD2-001] | 3 | 33 | – | – | –
AYLVYTDRL (listed as Homo sapiens) [PPAP2C-001] | 29 | 83 | – | – | –
AYPTVKFYF (listed as Homo sapiens) [DNAJC10-002] | 3 | 33 | – | – | –
DYAYLREHF (listed as Homo sapiens) [ZNF598-001] | 17 | 83 | – | – | –
DYTIGFGKF (listed as Homo sapiens) [ITGB4-001] | 20 | 67 | – | – | –
FYISPVNKL (listed as Homo sapiens) [AVL9-001] | 31 | 100 | – | – | –
FYQPKIQQF (listed as Homo sapiens) [FANCI-001] | 1 | 17 | – | – | –
HYKPTPLYF (listed as Homo sapiens) [SMC4-001] | 10 | 73 | – | – | –
IFSKIVSLF (listed as Homo sapiens) [EIF2S3-001] | 1 | 17 | – | – | –
IYAPKLQEF (listed as Homo sapiens) [CCNE2-001] | 0 | 0 | – | – | –
IYLEVIHNL (listed as Homo sapiens) [DNAJC10-001] | 15 | 50 | – | – | –
IYNGKLFDLL (listed as Homo sapiens) [KIF2C-001] | 2 | 17 | – | – | –
IYPDASLLI (listed as Homo sapiens) [CEA-010] | 3 | 40 | – | – | –
KIFDEILVNA (listed as Homo sapiens) [TOP-001] | – | – | 40 | 10 | –
KIQEILTQV (listed as Homo sapiens) [IGF2BP3-001] | – | – | 50 | 21 | –
KYLTVKDYL (listed as Homo sapiens) [ATAD2-002] | 1 | 17 | – | – | –
KYNDTFWKEF (listed as Homo sapiens) [HSP90B1-001] | 7 | 50 | – | – | –
LYLENIDEF (listed as Homo sapiens) [POLD3-001] | 7 | 67 | – | – | –
LYPEVFEKF (listed as Homo sapiens) [ATAD2-003] | 0 | 0 | – | – | –

Sequence | Wells positive/evaluable [%] [1] [%] | Donors positive/evaluable [%] [1] [%] | Donors positive/evaluable [%] [2] [%] | Wells positive/evaluable [%] [2] [%] | in vivo reactions [3]
LYQILQGIVF (listed as Homo sapiens) [CDC2-001] | 28 | 83 | – | – | –
MYMTVSIIDRF (listed as Homo sapiens) [CCNB1-003] | 3 | 33 | – | – | –
NYEETFPHI (listed as Homo sapiens) [MUC6-001] | 22 | 83 | – | – | –
NYLLYVSNF (listed as Homo sapiens) [MST1R-001] | 13 | 50 | – | – | –
NYLPFIMEL (listed as Homo sapiens) [UCHL5-001] | 12 | 75 | – | – | –
QYASRFVQL (listed as Homo sapiens) [PLK4-001] | 5 | 60 | – | – | –
QYIDKLNEL (listed as Homo sapiens) [CCDC88A-001] | 0 | 0 | – | – | –
RFLSGIINF (listed as Homo sapiens) [NUF2-002] | 6 | 50 | – | – | –
RYLEGTSCI (listed as Homo sapiens) [EPPK1-001] | 1 | 17 | – | – | –
RYLPKGFLNQF (listed as Homo sapiens) [PTK2-001] | 4 | 17 | – | – | –
RYLPQCSYF (listed as Homo sapiens) [CCND2-001] | 10 | 17 | – | – | –
RYLWATVTI (listed as Homo sapiens) [ASPM-001] | 3 | 17 | – | – | –
SYATLLHVL (listed as Homo sapiens) [GPR39-001] | 6 | 50 | – | – | –
SYIDVLPEF (listed as Homo sapiens) [MET-006] | 21 | 67 | – | – | –
SYIIDPLNL (listed as Homo sapiens) [PROM1-001] | 26 | 83 | – | – | –
SYLELVKSL (listed as Homo sapiens) [SDHC-001] | 3 | 33 | – | – | –
SYLQAANAL (listed as Homo sapiens) [COL6A3-001] | 0 | 0 | – | – | –
SYNPLWLRI (listed as Homo sapiens) [ASPM-002] | 32 | 67 | – | – | –
SYNVTSVLF (listed as Homo sapiens) [LCN2-001] | 1 | 17 | – | – | –

Sequence | Wells positive/evaluable [%] [1] [%] | Donors positive/evaluable [%] [1] [%] | Donors positive/evaluable [%] [2] [%] | Wells positive/evaluable [%] [2] [%] | in vivo reactions [3]
SYQKVIELF (listed as Homo sapiens) [PBK-001] | 0 | 0 | – | – | –
TYGNLLDYL (listed as Homo sapiens) [ABL1-001] | 18 | 83 | – | – | –
VFDTAIAHLF (listed as Homo sapiens) [SIAH2-001] | 8 | 50 | – | – | –
VFIFKGNQF (listed as Homo sapiens) [MMP3-001] | 1 | 11 | – | – | –
VWSDVTPLTF (listed as Homo sapiens) [MMP11-001] | 11 | 33 | – | – | –
VYFSKSEQL (listed as Homo sapiens) [EPHA2-005] | 0 | 0 | – | – | –
VYGIRLEHF (listed as Homo sapiens) [NUF2-001] | 50 | 100 | – | – | –
VYIEKNDKL (listed as Homo sapiens) [ERBB3-001] | – | 83 | – | – | –
VYISSLALL (listed as Homo sapiens) [PSMD14-001] | 1 | 17 | – | – | –
VYKVVGNLL (listed as Homo sapiens) [IQGAP3-001] | 24 | 100 | – | – | –
VYLLNSTTL (listed as Homo sapiens) [CLCN3-001] | 6 | 33 | – | – | –
VYNPTPNSL (listed as Homo sapiens) [COL12A1-001] | 0 | 0 | – | – | –
VYPNWAIGL (listed as Homo sapiens) [SLC6A6-001] | 1 | 17 | – | – | –
VYTTMAEHF (listed as Homo sapiens) [TSPAN1-002] | 1 | 17 | – | – | –
VYTTSYQQI (listed as Homo sapiens) [NFYB-001] | 7 | 50 | – | – | –
YVDPVITSI (listed as Homo sapiens) [MET-001] | – | – | 67 | 42 | extremely good in vivo reactions
YYKNIGLGF (listed as Homo sapiens) [RPS11-001] | 3 | 17 | – | – | –
YYNAAGFNKL (listed as Homo sapiens) [UQCRB-001] | 24 | 83 | – | – | –
YYYVGFAYL (listed as Homo sapiens) [EIF3L-001] | 29 | 100 | – | – | –
